# Values quoted from earlier work in patent publication US20150291756A1, “PROCESS FOR THE PRODUCTION OF RIGID FOAMED OBJECTS MADE OF POLYMER MATERIALS” (priority 2013, published 2015).
# Like-named read-outs stand apart in the source and are kept apart here.
# How the values were obtained:
# [1] = toxicological studies
# [2] = substance as such
# rats = settings: 4-hour exposure, decomposition residues of the diazocompound (TSMN for AIBN)
# [3] = recommended by OSHA, ACGIH, NIOSH
# human = human inhalative exposure; BASF Risk Assessment study
smiles,measurement,setting,value
"NC(=O)N=NC(N)=O [ADC, Azodicarbonamide]",carcinogenic and genotoxic activity,[1],carcinogenic and genotoxic activity
"CCC(C)(C#N)N=NC(C)(C#N)CC (stereo not shown) [AMBN, 2,2′-Azobis(2-methylbutanenitrile)]",EU Hazard Classification,[2],Harmful
same,Approximate Lethal Concentration Values by inhalation of its residues (ALC),rats,8.7 mg/L
"CC(C)(C#N)C(C)(C)C#N [TMSN, 2,2,3,3-tetramethylbutanedinitrile]",occupational permissible exposure limit,[3],0.5 ppm
same,occupational permissible exposure limit,[3]; equivalent of the ppm value,3 mg/m^3
same,tentative Derived No Effect Level (DNEL),human,25 μg/m^3
same,Approximate Lethal Concentration Values by inhalation of its residues (ALC),rats,0.1 mg/L
